Columns and labels:
[1] = Mouse liver microsome stability; assay type: in vitro ADME; conditions: mouse liver microsomes
[2] = Human liver microsome stability; assay type: in vitro ADME; conditions: human liver microsomes
Mouse plasma stability = assay type: in vitro ADME; conditions: 120 min
[3] = pH 7.4
Human plasma stability = assay type: in vitro ADME; conditions: 120 min
[4] = In vivo pharmacokinetics in mice; set-up: species or system mouse; conditions: for clearance: male, CD-1, mouse, plasma, iv, 10 mg/kg; for time until brain level fell below target therapeutic level: mice, single 10 mg/kg IV dose, target 30 ng/g for 11 and 13B, 120 ng/g for 12

Molecule	Mplasma stability (Mouse plasma stability)	Hplasma stability (Human plasma stability)	time until brain level fell below target therapeutic level [4]	further results
1-(3-(5-cyclopropyl-4-phenyl-4H-1,2,4-triazol-3-yl)propyl)-3-(2-methylcyclohexyl)urea [Compound 3]	84 % @ 120 min	98 % @ 120 min		t1/2 MLM [1]: 3 min; t1/2 HLM [2]: 8 min; Solubility [3]: 24
CC1CCCCC1NC(=O)NCCSc1nnc(C2CC2)n1-c1ccccc1 (centres unmarked) [Compound 1, 1-(2-((5-cyclopropyl-4-phenyl-4H-1,2,4-triazol-3-yl)thio)ethyl)-3-(2-methylcyclohexyl)urea, reference compound]	94 % @ 120 min	95 % @ 120 min		half-life at 1 μM [1]: 2 min
CC1CCCCC1NC(=O)NCCCc1nnc(C2CC2)n1-c1ccccc1 (centres unmarked) [Compound 2, 1-(3-(5-cyclopropyl-4-phenyl-4H-1,2,4-triazol-3-yl)propyl)-3-(2-methylcyclohexyl)urea]	100 % @ 120 min	95 % @ 120 min		
CC1CC(O)CCC1NC(=O)NCCCCc1ccccc1 (centres unmarked) [Compound 11, 1-(4-hydroxy-2-methylcyclohexyl)-3-(4-phenylbutyl)urea]			1 h	clearance [4]: 63.9 mL/min/kg
N-(4-fluoro-4-methylcyclohexyl)-6-phenylhexanamide [Compound 18]				t1/2 MLM [1]: 2.8 min; t1/2 HLM [2]: 10.2 min

More lines, main results first:

Mplasma stability (Mouse plasma stability)	Hplasma stability (Human plasma stability)	time until brain level fell below target therapeutic level [4]	Molecule	further results
		1 h	O=C(NCCCCc1ccccc1)NC1CCC(O)CC1 (centres unmarked) [Compound 12, 1-(4-hydroxycyclohexyl)-3-(4-phenylbutyl)urea]	clearance [4]: 29.5 mL/min/kg
		greater than 2 hour	O=C(CCCCCc1ccccc1)N[C@H]1CC[C@H](O)CC1 [Compound 13B, N-(trans-4-hydroxycyclohexyl)-6-phenylhexanamide]	

Reference: PMC7731667 (Journal of medicinal chemistry, 2020)
